The numbers were not newly measured in patent publication US5629431A, “Inhibitors of retroviral proteases” (Hoechst Aktiengesellschaft, priority 1989, dated 1997), which cites them from elsewhere.

Molecules are shown by their SMILES. Square brackets hold non-standard residues; d marks the D form. Peptide text beside a SMILES is read from it. * marks the point of attachment. Sta = CC(C)C[C@H](N)[C@@H](O)CC(=O)O; Isovaleryl = CC(C)CC(=O)*

The subject of data set [1] is formation of the nuclear protein p24 and activity of reverse transcriptase. Particulars: high doses; in the biosynthesis (v. d. Helm et al., FEBS Lett. 247, 1989).
Another data set has as its system HIV protease. Particulars: literature value (Katoh et al., Nature 329, 1987); read-out: IC50 against HIV protease.

In the case of `CC(C)CC(=O)N[C@H](C(=O)N[C@H](C(=O)N[C@@H](CC(C)C)[C@@H](O)CC(=O)N[C@@H](C)C(=O)N[C@@H](CC(C)C)[C@@H](O)CC(=O)O)C(C)C)C(C)C` [pepstatin A] (Isovaleryl-VV[Sta]A[Sta]-OH), in data set [1], the “activity of reverse transcriptase” value is given as “reduction” and the “formation of the nuclear protein p24” value is “reduction”. The IC50 in the data set on HIV protease is […].
